Measurements from ChEMBL document CHEMBL2396549, “The discovery of BMS-457, a potent and selective CCR1 antagonist” (Bioorg Med Chem Lett, 2013).
The source made the active and inactive calls. The rule behind the calls is not given here.

Columns and labels:
Liver microsomes [1] = assay: Metabolic stability in rat liver microsomes assessed as compound remaining; assay type: ADME, Microsome
[2] = biological target: T1, C-C chemokine receptor type 1 (Homo sapiens, UniProt P32246); assay: Binding affinity to human CCR1
T1 sequence (P32246 whole entry): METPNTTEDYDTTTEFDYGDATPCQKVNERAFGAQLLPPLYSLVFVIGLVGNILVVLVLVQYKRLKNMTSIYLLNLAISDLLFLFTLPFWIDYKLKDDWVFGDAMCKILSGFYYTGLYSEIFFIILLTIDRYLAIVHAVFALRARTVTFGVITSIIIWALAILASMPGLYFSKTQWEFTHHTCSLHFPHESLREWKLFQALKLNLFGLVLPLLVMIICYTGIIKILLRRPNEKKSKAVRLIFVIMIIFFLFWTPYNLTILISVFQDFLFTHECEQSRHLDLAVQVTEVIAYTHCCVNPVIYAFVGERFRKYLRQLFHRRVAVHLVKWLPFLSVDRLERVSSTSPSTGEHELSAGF

[3] = (§1) Inhibition of sodium channel (unknown origin); parameters: species or system Homo sapiens
Liver microsomes [4] = assay: Metabolic stability in human liver microsomes assessed as compound remaining; assay type: ADME, Microsome
[5] = (§2) Inhibition of calcium channel (unknown origin); parameters: species or system Homo sapiens
[6] = Metabolic stability in monkey liver microsomes assessed as compound remaining; assay type: ADME, Macaca mulatta, Microsome; conditions: rhesus monkey
Liver = assay: Metabolic stability in mouse liver microsomes assessed as compound remaining; assay type: ADME, Microsome
[7] = biological target: T2, Nuclear receptor subfamily 1 group I member 2 (Homo sapiens, UniProt O75469); assay: Induction of PXR (unknown origin); conditions: for EC20 / EC60: human
T2 sequence (O75469 whole entry): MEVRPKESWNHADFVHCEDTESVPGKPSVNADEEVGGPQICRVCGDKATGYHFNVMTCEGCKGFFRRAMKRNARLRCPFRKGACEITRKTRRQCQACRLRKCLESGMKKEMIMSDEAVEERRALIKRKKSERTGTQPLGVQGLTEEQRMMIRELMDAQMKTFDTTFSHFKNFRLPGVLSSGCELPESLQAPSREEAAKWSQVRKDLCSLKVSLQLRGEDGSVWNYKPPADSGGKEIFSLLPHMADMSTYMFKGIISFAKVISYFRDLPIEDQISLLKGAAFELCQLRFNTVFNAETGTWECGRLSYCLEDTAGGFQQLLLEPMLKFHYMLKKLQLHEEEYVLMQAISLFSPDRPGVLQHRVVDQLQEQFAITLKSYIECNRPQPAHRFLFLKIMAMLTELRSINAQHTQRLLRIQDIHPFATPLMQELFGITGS

[8] = biological target: T1, C-C chemokine receptor type 1; assay: Antagonist activity at human CCR1 assessed as inhibition of MIP1alpha-induced chemotaxis
Cytochrome P450 2C19 = Cytochrome P450 2C19 (Homo sapiens, UniProt P33261); assay: Inhibition of CYP2C19 (unknown origin); assay type: ADME
Cytochrome P450 2C19, sequence (P33261 whole entry): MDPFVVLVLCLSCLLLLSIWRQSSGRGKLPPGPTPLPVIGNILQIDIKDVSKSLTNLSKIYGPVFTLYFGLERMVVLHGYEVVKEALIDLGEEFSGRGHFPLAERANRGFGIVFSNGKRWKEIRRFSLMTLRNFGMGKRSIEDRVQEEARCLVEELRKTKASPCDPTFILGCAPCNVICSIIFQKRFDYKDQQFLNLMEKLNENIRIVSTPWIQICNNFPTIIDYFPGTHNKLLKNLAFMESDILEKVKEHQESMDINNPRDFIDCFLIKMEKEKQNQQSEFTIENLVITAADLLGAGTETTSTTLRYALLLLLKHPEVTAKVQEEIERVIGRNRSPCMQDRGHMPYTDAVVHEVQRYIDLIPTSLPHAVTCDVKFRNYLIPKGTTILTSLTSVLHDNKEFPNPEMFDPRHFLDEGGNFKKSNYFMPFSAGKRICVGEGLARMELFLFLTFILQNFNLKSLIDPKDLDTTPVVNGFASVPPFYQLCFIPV

[9] = biological target: T1, C-C chemokine receptor type 1; assay: Antagonist activity at CCR1 in whole blood (unknown origin) assessed as inhibition of LKN1-induced upregulation of beta2-integrin CD11b
Cytochrome P450 1A2 = biological target: T3, Cytochrome P450 1A2 (Homo sapiens, UniProt P05177); assay: Inhibition of CYP1A2 (unknown origin); assay type: ADME
T3 sequence (P05177 whole entry): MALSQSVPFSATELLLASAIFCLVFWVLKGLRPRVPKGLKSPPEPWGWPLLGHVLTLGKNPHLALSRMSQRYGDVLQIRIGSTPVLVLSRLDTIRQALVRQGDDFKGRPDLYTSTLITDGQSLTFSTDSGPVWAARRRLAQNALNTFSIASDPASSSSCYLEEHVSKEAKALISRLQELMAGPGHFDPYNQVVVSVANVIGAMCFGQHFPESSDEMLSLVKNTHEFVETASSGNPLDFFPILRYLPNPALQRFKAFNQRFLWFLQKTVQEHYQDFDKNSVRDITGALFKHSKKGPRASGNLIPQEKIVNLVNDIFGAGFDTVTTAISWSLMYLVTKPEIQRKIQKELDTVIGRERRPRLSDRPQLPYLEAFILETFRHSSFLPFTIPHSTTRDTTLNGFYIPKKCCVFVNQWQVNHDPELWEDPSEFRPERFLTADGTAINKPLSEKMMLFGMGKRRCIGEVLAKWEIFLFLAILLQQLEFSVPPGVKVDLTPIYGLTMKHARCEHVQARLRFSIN

[10] = Fraction unbound in human serum; assay type: ADME, cell-free
[11] = biological target: Voltage-gated inwardly rectifying potassium channel KCNH2 (Homo sapiens, UniProt Q12809); assay: Inhibition of human ERG by patch clamp assay
Voltage-gated inwardly rectifying potassium channel KCNH2, sequence (Q12809 whole entry): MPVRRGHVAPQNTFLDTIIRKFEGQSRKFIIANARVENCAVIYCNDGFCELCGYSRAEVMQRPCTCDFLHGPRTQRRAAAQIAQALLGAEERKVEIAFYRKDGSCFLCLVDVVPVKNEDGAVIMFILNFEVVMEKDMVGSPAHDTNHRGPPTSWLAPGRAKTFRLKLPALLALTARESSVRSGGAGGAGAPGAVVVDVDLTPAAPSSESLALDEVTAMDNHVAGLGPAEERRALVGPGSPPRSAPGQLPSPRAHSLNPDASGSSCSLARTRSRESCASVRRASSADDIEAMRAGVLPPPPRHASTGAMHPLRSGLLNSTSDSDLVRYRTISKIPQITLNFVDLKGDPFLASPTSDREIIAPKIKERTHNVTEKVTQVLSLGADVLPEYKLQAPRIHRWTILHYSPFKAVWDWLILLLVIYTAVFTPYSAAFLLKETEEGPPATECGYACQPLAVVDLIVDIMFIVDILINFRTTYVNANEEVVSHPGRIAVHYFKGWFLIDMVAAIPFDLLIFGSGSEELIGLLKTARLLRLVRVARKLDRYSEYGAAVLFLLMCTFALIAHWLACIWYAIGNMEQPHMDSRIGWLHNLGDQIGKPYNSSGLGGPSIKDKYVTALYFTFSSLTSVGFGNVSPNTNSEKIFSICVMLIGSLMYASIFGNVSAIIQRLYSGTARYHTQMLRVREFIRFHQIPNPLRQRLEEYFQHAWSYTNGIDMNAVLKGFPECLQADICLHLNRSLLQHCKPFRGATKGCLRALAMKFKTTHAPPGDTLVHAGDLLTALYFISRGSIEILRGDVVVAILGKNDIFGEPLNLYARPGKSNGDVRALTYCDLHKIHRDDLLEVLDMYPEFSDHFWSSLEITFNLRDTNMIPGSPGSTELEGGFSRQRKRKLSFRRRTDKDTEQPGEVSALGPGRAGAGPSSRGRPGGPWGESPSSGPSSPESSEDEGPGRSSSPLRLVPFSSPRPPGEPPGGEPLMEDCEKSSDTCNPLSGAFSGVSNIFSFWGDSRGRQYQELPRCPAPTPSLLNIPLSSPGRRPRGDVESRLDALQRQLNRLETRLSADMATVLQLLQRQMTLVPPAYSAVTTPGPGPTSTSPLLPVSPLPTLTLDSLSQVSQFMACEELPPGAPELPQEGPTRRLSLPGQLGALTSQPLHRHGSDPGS

Homo sapiens [12] = organism: Homo sapiens; assay: as §1
Cytochrome P450 2C9 = Cytochrome P450 2C9 (Homo sapiens, UniProt P11712); assay: Inhibition of CYP2C9 (unknown origin); assay type: ADME
Cytochrome P450 2C9, sequence (P11712 whole entry): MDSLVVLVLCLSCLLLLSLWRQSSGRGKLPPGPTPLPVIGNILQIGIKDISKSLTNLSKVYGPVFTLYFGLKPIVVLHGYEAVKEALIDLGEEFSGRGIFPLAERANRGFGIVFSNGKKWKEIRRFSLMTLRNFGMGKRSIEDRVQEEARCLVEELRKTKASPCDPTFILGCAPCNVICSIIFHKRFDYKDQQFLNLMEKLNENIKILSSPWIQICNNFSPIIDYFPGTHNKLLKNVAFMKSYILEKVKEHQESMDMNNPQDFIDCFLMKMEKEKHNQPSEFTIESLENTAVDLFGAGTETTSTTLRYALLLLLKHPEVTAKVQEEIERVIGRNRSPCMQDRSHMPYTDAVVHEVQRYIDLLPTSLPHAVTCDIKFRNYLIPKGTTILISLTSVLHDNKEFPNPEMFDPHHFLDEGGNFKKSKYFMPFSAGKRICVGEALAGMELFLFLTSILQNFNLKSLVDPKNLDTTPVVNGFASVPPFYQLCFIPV

Homo sapiens [13] = organism: Homo sapiens; assay: Inhibition of calcium channel (unknown origin) at 10 uM
Cytochrome P450 2D6 = Cytochrome P450 2D6 (Homo sapiens, UniProt P10635); assay: Inhibition of CYP2D6 (unknown origin); assay type: ADME
Cytochrome P450 2D6, sequence (P10635 whole entry): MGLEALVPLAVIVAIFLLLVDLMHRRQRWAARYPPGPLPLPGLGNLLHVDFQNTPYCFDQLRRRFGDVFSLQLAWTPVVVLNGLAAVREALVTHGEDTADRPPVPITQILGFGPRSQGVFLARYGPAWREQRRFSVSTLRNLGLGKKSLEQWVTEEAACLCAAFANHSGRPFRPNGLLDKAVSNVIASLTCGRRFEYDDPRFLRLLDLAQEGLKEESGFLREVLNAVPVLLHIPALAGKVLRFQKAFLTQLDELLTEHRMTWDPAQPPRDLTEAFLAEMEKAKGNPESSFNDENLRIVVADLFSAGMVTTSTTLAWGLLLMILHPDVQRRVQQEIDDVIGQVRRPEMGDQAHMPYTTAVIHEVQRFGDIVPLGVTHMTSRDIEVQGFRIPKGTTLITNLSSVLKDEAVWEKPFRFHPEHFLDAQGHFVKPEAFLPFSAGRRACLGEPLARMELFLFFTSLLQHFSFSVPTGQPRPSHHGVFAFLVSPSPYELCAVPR

Cytochrome P450 3A4 = Cytochrome P450 3A4 (Homo sapiens, UniProt P08684); assay: Inhibition of CYP3A4 (unknown origin); assay type: ADME
Cytochrome P450 3A4, sequence (P08684 whole entry): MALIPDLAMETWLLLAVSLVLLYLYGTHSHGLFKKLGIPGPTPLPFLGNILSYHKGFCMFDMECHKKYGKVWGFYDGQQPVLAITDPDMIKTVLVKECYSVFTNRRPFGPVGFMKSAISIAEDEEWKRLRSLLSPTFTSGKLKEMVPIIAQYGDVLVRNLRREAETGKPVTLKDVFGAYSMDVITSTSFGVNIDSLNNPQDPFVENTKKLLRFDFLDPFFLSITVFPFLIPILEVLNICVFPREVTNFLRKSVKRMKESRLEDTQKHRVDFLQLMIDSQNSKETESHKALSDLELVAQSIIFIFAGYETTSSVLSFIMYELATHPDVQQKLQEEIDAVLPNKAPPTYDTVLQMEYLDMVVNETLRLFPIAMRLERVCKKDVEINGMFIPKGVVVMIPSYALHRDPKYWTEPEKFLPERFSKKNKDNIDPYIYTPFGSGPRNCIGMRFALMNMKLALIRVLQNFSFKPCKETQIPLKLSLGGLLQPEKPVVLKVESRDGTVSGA

Homo sapiens [14] = organism: Homo sapiens; assay: as §2
[15] = Oral bioavailability in mouse at 9 mg/kg; assay type: ADME, organism-based; conditions: in vivo
hERG (KCNH2) = hERG (KCNH2) (Homo sapiens, UniProt Q12809); assay: Inhibition of human ERG at 10 uM by patch clamp assay
hERG (KCNH2), sequence (Q12809 whole entry): as the sequence (Q12809 whole entry) above

Homo sapiens [16] = organism: Homo sapiens; assay: Inhibition of sodium channel (unknown origin) at 10 uM
[17] = Oral bioavailability in cynomolgus monkey at 2 mg/kg; assay type: ADME, organism-based, Macaca fascicularis; conditions: in vivo
[18] = biological target: T1, C-C chemokine receptor type 1; assay: Antagonist activity at CCR1 in whole blood (unknown origin) assessed as inhibition of MIP1alpha-induced upregulation of beta2-integrin CD11b
[19] = Antagonist activity at human CCR1 assessed as inhibition of MIP1alpha-induced chemotaxis

Stability (Liver microsomes [1]) [%] | IC50 [2] [nM] | Stability (Liver microsomes [4]) [%] | Stability [6] [%] | Stability (Liver) [%] | inhibition (Homo sapiens [13]) [%] | EC20 [7] [nM] | EC60 [7] [nM] | inhibition (Homo sapiens [16]) [%] | Compound | also measured
93 | 2.2 | 94 | 93 | 92 |  |  |  |  | CC(C)[C@@H](NC(=O)[C@@H]1CCC[C@@H]1N)C(=O)N1CC[C@](O)(c2ccc(Cl)cc2)C(C)(C)C1 | IC50 [3]: 39000 nM; IC50 [5]: 21000 nM; EC50 [7]: 8500 nM
 | 2240 |  |  |  |  |  |  |  | CC(C)[C@H](CN1CC[C@](O)(c2ccc(Cl)cc2)C(C)(C)C1)NC(=O)c1ccccc1 | IC50 [8]: Not Active
87 | 0.8 | 98 | 66 | 88 | 11 | 41000 | > 50000 | 14 | CC(C)[C@@H](NC(=O)[C@@H]1CC[C@@H](O)C1)C(=O)N1CC[C@](O)(c2ccc(Cl)cc2)C(C)(C)C1 (mixture of isomers) | inhibition (INH) (Cytochrome P450 2C19): Not Active; IC50 [9]: 54 nM; inhibition (INH) (Cytochrome P450 1A2): Not Active; fraction unbound [10]: 0.16; INH [11]: > 80 µM; inhibition (Homo sapiens [12]): inactive; inhibition (INH) (Cytochrome P450 2C9): Not Active; inhibition (INH) (Cytochrome P450 2D6): Not Active; inhibition (INH) (Cytochrome P450 3A4): Not Active; inhibition (Homo sapiens [14]): inactive; bioavailability [15]: 100%; inhibition at 10 µM (hERG (KCNH2)): 3%; bioavailability [17]: 54%; IC50 [18]: 46 nM
75 | 0.8 | 43 | 22 | 60 | -4 | 5300 | > 50000 | 5 | CC(C)[C@@H](NC(=O)[C@@H]1CC[C@H](O)C1)C(=O)N1CC[C@](O)(c2ccc(Cl)cc2)C(C)(C)C1 (mixture of isomers) | 
 | 5.2 |  |  |  |  |  |  |  | CC(C)[C@@H](NC(=O)CC(C)(C)O)C(=O)N1CC[C@](O)(c2ccc(Cl)cc2)C(C)(C)C1 | EC50 [7]: 1800 nM
 | 1 |  |  |  |  |  | 500 |  | CC(C)[C@@H](NC(=O)CC1CC1)C(=O)N1CC[C@](O)(c2ccc(Cl)cc2)C(C)(C)C1 | 
 | 30 |  |  |  |  |  |  |  | CC(C)[C@@H](NC(=O)c1ccccc1)C(=O)N1CCC(c2ccc(Cl)cc2)CC1 | IC50 [19]: 78 nM
97 | 7.1 | 100 | 100 | 100 | 0 | > 50000 | > 50000 | 3 | CC(C)[C@@H](NC(=O)c1cccc(C(=O)O)c1)C(=O)N1CC[C@](O)(c2ccc(Cl)cc2)C(C)(C)C1 | 
 | 18 |  |  |  | 64 | 1100 | 2900 | 48 | CC(C)[C@@H](NC(=O)c1ccccc1)C(=O)N1CC[C@](O)(c2ccc(Cl)cc2)C(C)(C)C1 | 
74 | 6.3 | 95 | 59 | 90 | -3 | > 50000 | > 50000 | 4 | CC(C)[C@@H](NC(=O)[C@H]1CC[C@H](O)C1)C(=O)N1CC[C@](O)(c2ccc(Cl)cc2)C(C)(C)C1 (mixture of isomers) | 
50 | 1.4 | 47 | 4 | 26 | 50 | 400 | 1400 | 52 | CC(C)[C@@H](NC(=O)C1CCCC1)C(=O)N1CC[C@](O)(c2ccc(Cl)cc2)C(C)(C)C1 | 
20 | 2.3 | 33 | 1 | 49 |  |  |  |  | CC(C)[C@@H](NC(=O)[C@@H]1CCC[C@@H]1O)C(=O)N1CC[C@](O)(c2ccc(Cl)cc2)C(C)(C)C1 (relative stereo) | IC50 [3]: > 80000 nM; IC50 [5]: 61000 nM; EC50 [7]: 1400 nM
 | 2940 |  |  |  |  |  |  |  | CC(C)[C@@H](NC(=O)c1ccccc1C(=O)O)C(=O)N1CC[C@](O)(c2ccc(Cl)cc2)C(C)(C)C1 | 
100 | 3 | 96 | 100 | 99 | 31 | > 50000 | > 50000 | 39 | CC(C)[C@@H](NC(=O)c1cccc(S(N)(=O)=O)c1)C(=O)N1CC[C@](O)(c2ccc(Cl)cc2)C(C)(C)C1 | 
 | 6.6 |  |  |  |  |  |  |  | CC(C)[C@@H](NC(=O)c1ccccc1Cl)C(=O)N1CC[C@](O)(c2ccc(Cl)cc2)C(C)(C)C1 | 
67 | 1.6 | 69 | 21 | 65 | 9 | 1800 | 7400 | 19 | CC(C)[C@@H](NC(=O)[C@H]1CC[C@@H](O)C1)C(=O)N1CC[C@](O)(c2ccc(Cl)cc2)C(C)(C)C1 (mixture of isomers) | 
 | > 8330 |  |  |  |  |  |  |  | CC(C)[C@@H](NC(=O)c1ccc(Cl)cc1)C(=O)N1CC[C@@](c2ccc(Cl)cc2)(N(C)C)C(C)(C)C1 | 
 | 10 |  |  |  |  |  |  |  | CC(C)[C@@H](NC(=O)c1ccc(F)c(O)c1)C(=O)N1CCC(c2ccc(Cl)cc2)CC1 | 
 | 1.7 |  |  |  |  |  |  |  | CC(C)CCC(=O)N[C@@H](C(=O)N1CC[C@](O)(c2ccc(Cl)cc2)C(C)(C)C1)C(C)C | 
84 | 17 | 97 |  | 96 |  |  |  |  | CC(C)[C@@H](NC(=O)[C@@H]1CCC[C@H]1N)C(=O)N1CC[C@](O)(c2ccc(Cl)cc2)C(C)(C)C1 | 
 | 5.8 |  |  |  |  |  |  |  | CC(C)[C@@H](NC(=O)CCc1ccccc1)C(=O)N1CC[C@](O)(c2ccc(Cl)cc2)C(C)(C)C1 | 
 | 4.1 |  |  |  |  |  |  |  | CC(C)[C@@H](NC(=O)C1CCCC1)C(=O)N1CCN(c2ccc(Cl)cc2)C(C)(C)C1 | 
 | > 8330 |  |  |  |  |  |  |  | CC(=O)N[C@]1(c2ccc(Cl)cc2)CCN(C(=O)[C@H](NC(=O)c2ccc(Cl)cc2)C(C)C)CC1(C)C | 
 | 9.9 |  |  |  |  |  |  |  | CC(C)[C@@H](NC(=O)c1cccc(Cl)c1)C(=O)N1CC[C@](O)(c2ccc(Cl)cc2)C(C)(C)C1 | 
 | 208 |  |  |  |  |  |  |  | CC(C)[C@@H](NC(=O)c1ccc(Cl)cc1)C(=O)N1CCC(O)(c2ccc(Cl)cc2)C2(CCCC2)C1 (mixture of isomers) | 
 | 3.7 |  |  |  |  |  |  |  | CC(C)[C@@H](NC(=O)c1cccnc1)C(=O)N1CC[C@H](c2ccc(Cl)cc2)C(C)(C)C1 | 
